Consider two compounds from publication PMC8434099, “Selected Drug-Likeness Properties of 2-Arylidene-indan-1,3-dione Derivatives—Chemical Compounds with Potential Anti-Cancer Activity” (Molecules, 2021).

Structures are written as SMILES.

The subject of series [1] is Human Serum Albumin (HSA). Put plainly: Binding to albumin, fluorescence quenching. Particulars: calculated from association constant KS for albumin concentration in blood of 44 mg/mL (660 μM); for fraction unbound: human, human serum albumin solution (10 µM HSA), pH 7.4, read-out: free fraction (albumin). How it is done: Fluorescence lifetime and fluorescence intensity of HSA solutions were measured using the time-resolved Fluorescence Spectrophotometer Life Spec II (Edinburgh Instruments Ltd., Livingston, UK) with the sub-nanosecond pulsed EPLED diode emitting a light of the wavelength 280 nm. The spectrometer was equipped with electronically cooled photomultiplier Hamamatsu R928 connected with TCC900 PC Card, which incorporates all the electronic modules required for Time-Correlated Single Photon Counting (TCSPC). The fluorescence decays were recorded at an emission wavelength of 350 nm. The data were fitted with an exponential decay to obtain total fluorescence intensity and lifetime. Measurements were performed at room temperature using quartz cuvettes 3.5 × 10 mm. The exposure time of the sample was 30 s. A spectrophotometer Jasco V-550 was used for absorption measurements.
Human Serum Albumin (HSA, 97%) was purchased from Sigma Aldrich. For the fluorescence quenching measurements, the 10 µM PBS solution of HSA at pH 7.4 was prepared, and 10 mM stock solutions of studied compounds were prepared in DMSO (dimethylsulfoxide). The final concentration of studied compounds in HSA solution varied between 0 and 70 µM.
Fluorescence quenching of albumin can be described by the Stern–Volmer Equation [21]: (3) F0/F=KSV[Q]+1, where F0 and F are the fluorescence intensities in the absence and presence of quencher, respectively, [Q] is the concentration of quencher, and KSV is the Stern–Volmer quenching constant.
Due to the fact that a quencher can absorb light at the excitation and/or emission wavelengths, the measured intensity should be corrected according to the Formula [22]:(4) Fobserved=Fcorrect×10^−Aex×dex/2−Aem×dem/2, where Fobserved is the measured fluorescence, Fcorrect is the fluorescence that would be measured in the absence of absorption effect, Aex and Aem are the absorbances of ligand at the excitation (280 nm) and emission wavelength (350 nm), respectively, and dex and dem are the cuvette pathlength in the excitation and emission direction (0.35 cm and 1 cm, respectively).
As the fluorophore can be quenched by collisions or by complex formation with the quencher, there are two types of quenching: dynamic and static. They can be distinguished by lifetime measurements. […] If the quenching is known to be dynamic, then:(5) F0/F=KD[Q]+1=τ0/τ, where τ0 and τ are the lifetimes in the absence and presence of quencher, and KD is the dynamic quenching constant.
In many cases, both static and dynamic quenching occurs for the same fluorophore, then modified Stern–Volmer equation has the form:(6) F0/F=(KD[Q]+1)(KS[Q]+1)=τ0/τ(KS[Q]+1),
The dynamic portion of the quenching (KD[Q] + 1), according to Equation (5), can be determined by lifetime measurements. The portion (KS[Q] + 1) relates to static quenching, and KS is the association constant, which is given by:(7) KS=[F−Q]/[F][Q], where [F−Q] is the concentration of complex fluorophore–quencher, [F] is the concentration of uncomplexed fluorophore (concentration of free HSA molecules), and [Q] is the concentration of quencher.
In this study, the tested compounds were added to the HSA solution, and the fluorescence intensity and lifetime at 350 nm were measured for varying concentrations of ligands. On the basis of absorbance measurements of ligands at 280 nm and 350 nm, the correct fluorescence intensities were estimated using Equation (4). Then, the Stern–Volmer constants, dynamic quenching constants, and association constants of studied compounds were determined using Equations (3), (5) and (6), respectively.
Knowing the value of association constant KS, it is possible to determine the theoretical percentage of the bound and free fraction of the drug for the physiological concentration of albumin. […]

The nature of series [2]: Chromatographic (RP-HPLC) examination of lipophilicity, Snyder–Soczewiński model. The format is physicochemical. Particulars: for logkw (ACN) / −S (ACN): acetonitrile as organic modifier; for Δ = |logkw-MeOH − logkw-ACN|: difference of logkw between modifiers. Here is the method: The chromatographic analysis was carried out on a Shimadzu device equipped with a pump system (LC-20AD model), a detector with a diode bench (SPD-M20A model), a degasser (DGU-20A 5R model), a chromatographic oven (CTO-10AS VP), autosampler (SIL-20AC HT model), and chromatographic column (LiChrospher 100 RP-18, 5 μm, Poznań, Poland). Analyses were performed, leading to a multicratic elution. The mobile phase was methanol (J. T. Backer, Phillipsburg, NJ, USA) or acetonitrile (J. T. Backer) and water (Hydrolab, HPL5UV model, Straszyn, Poland) in different volume ratios. In individual analyses, the concentration of the organic modifier expressed as a […] was 0.75–0.95 with a constant step of 0.05. The test compounds were dissolved in methanol. The injection volume was 10 µL. The flow was set at 1 mL/min, the temperature of the chromatography oven at 25 °C, and the detector temperature at 2 °C higher than the ambient temperature. Compounds were detected in the range 190–800 nm. All samples were tested in duplicate at least. Column dead time (tM) was determined using uracil (Sigma Aldrich). The retention coefficient was calculated using the following formula:(1) k=tR/tM−1, where tR is the retention time of the test compound in a given eluent composition, and tM is the chromatographic column dead time.
The value of lipophilicity was determined using the linear dependence of the decimal logarithm from the retention coefficient (logk) and the concentration of the organic modifier in the mobile phase, which was expressed as a volume fraction. For this purpose, the following formula was used:(2) logk=logkw+Sφ, where logk is the decimal logarithm of the retention coefficient, logkw is the value obtained by extrapolating the curve, S is the slope of the regression curve, and φ is the volume fraction of the organic modifier.
The coefficient of determination (R^2) was also calculated for the prepared curves.

Series [3] has as its system HeLa cells. Put plainly: Antiproliferative activity, MTT protocol. Type of series: cell-based, human. Conditions: 0.01 mg/mL, 72 h. Here is the method:
(§1) Mouse melanoma (B16F10), human lung carcinoma (A549), and human cervix (HeLa) cell lines (kindly gifted by Prof. Tomasz Drewa, a Chair of Urology, Department of Regenerative Medicine, Collegium Medicum, Nicolaus Copernicus University, Bydgoszcz, Poland) were cultivated at 37 °C, controlled CO2 atmosphere (Binder, Tuttlingen, Germany), and high humidity with RPMI cell culture medium (with L-glutamine and sodium bicarbonate, Sigma-Aldrich), supplemented with 10% of fetal bovine serum (FBS, Biowest, Nuaillé, France), as well as antibiotics (penicillin, streptomycin) and antimycotics (amphotericin B) (Sigma-Aldrich). Combretastatin A4 (CA4), doxorubicin (DoX), and […] were purchased from Sigma-Aldrich.
(§2) Cells were counted with an automated cell counter (Countess® II FL, Invitrogen by Thermo Fisher Scientific Inc., Waltham, MA, USA). A number of 1 × 10^3 (B16F10, A549) or 2.5 × 10^3 cells were plated in each well of 96-well plate (Nunc Edge 2F, Thermo Fisher Scientific Inc.) and left for 24 h incubation prior to drug administration. After this period, the medium was replaced with a fresh medium containing the drugs (at final concentration of 0.01 mg/mL) and left for incubation for the next 72 h. A solution of thiazol blue tetrazolium (MTT, Sigma-Aldrich) was prepared in PBS at concentration of 5 mg/mL and administrated to the cell culture medium at the volume of 10% of the initial medium volume. After 2 h of incubation, the medium was removed, and crystals of formazan were solubilized in isopropanol (Sigma-Aldrich). Absorbance readout was conducted using plate reader Multiskan Spectrum (Thermo Electron Corporation, Waltham, MA, USA) at 570 nm.
(§3) Combretastatin A4 (CA4), doxorubicin (DX), and […] were employed as positive controls. Biological evaluation was performed as three independent experiments; mean response and standard deviation were calculated using Excel software (v. 2013, Microsoft Corporation, Redmond, WA, USA).

In series [4] the test system is A549 cells. Kind of series: Antiproliferative activity, MTT protocol. Type of series: cell-based, human. Conditions: 0.01 mg/mL, 72 h, relative to control culture. Here is the method:
as §1, §2, §3

Series [5] concerns B16F10 cells. Kind of series: Antiproliferative activity, MTT protocol. The format is cell-based, mouse. Conditions: 0.01 mg/mL, 72 h, relative to control culture. How it is done:
as §1
Cells were counted with an automated cell counter (Countess® II FL, Invitrogen by Thermo Fisher Scientific Inc., Waltham, MA, USA). […] Absorbance readout was conducted using plate reader Multiskan Spectrum (Thermo Electron Corporation, Waltham, MA, USA) at 570 nm.
as §3

The mark [6] stands for this setting: RP-HPLC, extrapolated Snyder–Soczewiński curve.
Setting [7] is: slope of the Snyder–Soczewiński regression curve.

For the compound `COc1ccc2c(OC)ccc(C=C3C(=O)c4ccccc4C3=O)c2c1` [Compound 3G, 2-[(4,7-dimethoxynaphthalen-1-yl)methylidene]-1H-indene-1,3(2H)-dione], in series [1], the “bound fraction (albumin)” value is given as 88% and the fraction unbound was 0.12. In addition, the “logkw (ACN)” value in series [2] (setting [6]) was 2.8533. Moreover, the “Δ = |logkw-MeOH − logkw-ACN|” value in series [2] was found to be 1.7531. Besides, the “−S (ACN)” value in series [2] (setting [7]) amounted to 2.8762. For the same compound, the “Number of HeLa cells compared to the control culture” value in series [3] was 7.15 ± 3.12%. Further, the “Effect on HeLa cells (in words)” value in series [3] (relative to control culture) is reported as “more effective than the control compounds”. Besides, the “Inhibition of development and division of A549 cells (in words)” value in series [4] was “most strongly inhibited”.
In the case of `O=C1C(=Cc2cccc3ccccc23)C(=O)c2ccccc21` [Compound 3F, 2-[(naphthalen-1-yl)methylidene]-1H-indene-1,3(2H)-dione], in series [5], the “Response of B16F10 cells (in words)” value is “responded best”. For the same compound, in series [1], the “bound fraction (albumin)” value is given as 93% and the fraction unbound was 0.07. Further, the “logkw (ACN)” value in series [2] (setting [6]) is on record as 2.6107. The “logkw (MeOH)” value in series [2] (RP-HPLC, methanol as organic modifier, extrapolated Snyder–Soczewiński curve) is reported as 3.9640. Moreover, in series [2], the “Δ = |logkw-MeOH − logkw-ACN|” value is 1.3533. In addition, the “−S (ACN)” value in series [2] (setting [7]) was determined as 2.7449. Further, the “−S (MeOH)” value in series [2] (slope of the Snyder–Soczewiński regression curve, methanol as organic modifier) is on record as 3.8549.
